Results published in patent US20260176277A1, “COMPOUNDS AND COMPOSITIONS AS eIF4E INHIBITORS AND USES THEREOF” (Ribometrix, Inc., priority 2022, published 2026).

Legend:
human eIF4E protein = target: T1, human eIF4E protein (Homo sapiens, UniProt P06730); assay: Biochemical competitive binding assay (TR-FRET competition); conditions: recombinant 6xHIS-tagged human eIF4E, EDA-m7GDP-ATTO-647N probe; read-out: hEIF4E TR-FRET IC50
T1 construct: purchased Novus NBP-45314
Protocol: The potencies of compounds binding to human eIF4E protein were measured using a 384-well time-resolved fluorescence resonance energy transfer (TR-FRET) competition assay. The assay was performed in assay buffer containing 50 mM HEPES pH 7.5, 100 mM KCl, 0.02% Tween-20, and 0.1 mg/mL bovine serum albumin (BSA). The reaction volume was 10 μL and each reaction contained 4 nM recombinant 6×HIS-tagged human eIF4E protein (Novus, NBP-45314), 5 nM EDA-m7GDP-ATTO-647N (Jena Bioscience, NU-827-647N), 2.5 nM Europium conjugated Anti-6×HIS antibody (PerkinElmer, AD0402) and varying concentrations of compound. The final DMSO concentration was 1%.
Compounds were prepared using 11-point, 4-fold serial dilutions in DMSO and 100 nL of diluted compounds were transferred to 384-well assay-ready plates. Recombinant human eIF4E protein at 2× final concentration (8 nM) was pre-incubated with Eu-anti-6×HIS antibody at 2× final concentration (5 nM) for 5 minutes, then 5 μL of the protein solution was added to assay-ready plates. The protein/compound mix was incubated for 15 minutes, after which 5 μL of a solution containing EDA-m7GDP-ATTO-647N probe at 2× final concentration (10 nM) was added. After a subsequent 15-minute incubation, time-resolved fluorescence of assay plates was measured using a Clariostar Plus microplate reader (BMG Labtech) and TR-FRET values were calculated by taking a ratio of the 665 to 620 wavelength signals. After normalization to the average of DMSO control and maximum inhibition control wells, concentration-response data were plotted and standard 4-parameter curve fitting (PEI Signals) was utilized to determine IC50 values.

[1] = tested on: cap-dependent translation in Flp-In-293 reporter cells; assay: Cellular cap-dependent translation inhibition dual luciferase assay (DLA); format: cell-based; conditions: Homo sapiens, ratio of Fluc (cap-dependent) to Rluc (IRES) luminescence, 24 hours of compound treatment

T1 sequence (P06730 whole entry): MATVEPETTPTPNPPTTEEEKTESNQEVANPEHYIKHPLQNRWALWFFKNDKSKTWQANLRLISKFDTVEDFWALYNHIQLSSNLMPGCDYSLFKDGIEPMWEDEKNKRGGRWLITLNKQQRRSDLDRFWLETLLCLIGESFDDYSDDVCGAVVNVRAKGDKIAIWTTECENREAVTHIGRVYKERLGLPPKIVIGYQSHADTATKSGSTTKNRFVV

Compound | IC50 (human eIF4E protein) [µM] | IC50 [1] [µM]
Cc1nc2c(c(=O)n1CCOc1ccc(Cl)cc1-c1cccc(C(=O)O)c1)CN(C)CC2 [Compound 1] | < 0.4 | –
CCN1CCc2nc(C)n(CCOc3ccc(Cl)cc3-c3cccc(C(=O)O)c3)c(=O)c2C1 [Compound 4] | < 0.4 | 10 to 20
Cc1nc2c(c(=O)n1CCOc1ccc(Cl)cc1-c1cccc(C(=O)O)c1)CN(C1CCOCC1)CC2 [Compound 5] | 0.4 to 10 | > 20
Cc1nc2c(c(=O)n1CCOc1ccc(Cl)cc1-c1ccnc(C(=O)O)c1)CN(C)CC2 [Compound 9] | < 0.4 | > 20
COCCN1CCc2nc(C)n(CCOc3ccc(Cl)cc3-c3ccnc(C(=O)O)c3)c(=O)c2C1 [Compound 10] | < 0.4 | > 20
Cc1nc2c(c(=O)n1CCOc1ccc(Br)cc1-c1cccc(C(=O)O)c1)CN(C)CC2 [Compound 16] | < 0.4 | > 20
Cc1nc2c(c(=O)n1CCOc1cnc(Cl)cc1-c1ccnc(C(=O)O)c1)CN(C)CC2 [Compound 17] | 0.4 to 10 | > 20
Cc1cc(-c2cc(Cl)ccc2OCCn2c(C)nc3c(c2=O)CN(c2ccccc2F)CC3)c2scc(C(=O)O)c2n1 [Compound 18] | < 0.4 | < 10
Cc1cc(-c2cc(Cl)ccc2OCCn2c(C)nc3c(c2=O)CN(Cc2ccncc2)CC3)c2scc(C(=O)O)c2n1 [Compound 20] | < 0.4 | < 10
Cc1cc(-c2cc(Cl)ccc2OCCn2c(C)nc3c(c2=O)CN(c2ccnc4ccncc24)CC3)c2scc(C(=O)O)c2n1 [Compound 21] | < 0.4 | < 10
COc1cc(N2CCc3nc(C)n(CCOc4ccc(Cl)cc4-c4cc(C)nc5c(C(=O)O)csc45)c(=O)c3C2)ccn1 [Compound 23, 7-[5-chloranyl-2-[2-[6-(2-methoxy-4-pyridyl)-2-methyl-4-oxidanylidene-7,8-dihydro-5H-pyrido[4,3-d]pyrimidin-3-yl]ethoxy]phenyl]-5-methyl-thieno[3,2-b]pyridine-3-carboxylic acid; 2,2,2-tris(fluoranyl) acetic acid] | < 0.4 | < 10
Cc1cc(-c2cc(Cl)ccc2OCCn2c(C)nc3c(c2=O)CN(CC(F)(F)F)CC3)c2scc(C(=O)O)c2n1 [Compound 24, 7-[5-chloranyl-2-[2-[2-methyl-4-oxidany-lidene-6-[2,2,2-tris(fluoranyl)ethyl]-7,8-dihydro-5H-pyrido[4,3-d]pyrimidin-3-yl]ethoxy]phenyl]-5-methyl-thieno[3,2-b]pyridine-3-carboxylic acid; 2,2,2-tris(fluoranyl) acetic acid] | < 0.4 | < 10
Cc1cc(-c2cc(Cl)ccc2OCCn2c(C)nc3c(c2=O)CN(C)CC3)c2ccc(C(=O)O)n2n1 [Compound 26, 4-[5-chloranyl-2-[2-[2,6-di(methyl)-4-oxidanylidene-7,8-dihydro-5H-pyrido[4,3-d]pyrimidin-3-yl]ethoxy]phenyl]-2-methyl-pyrrolo[1,2-b]pyridazine-7-carboxylic acid] | < 0.4 | < 10
Cc1cc(-c2cc(Cl)ccc2OCCn2c(C)nc3c(c2=O)CN(C)CC3)c2ccc(C(=O)NS(C)(=O)=O)n2n1 [Compound 27, 4-[5-chloranyl-2-[2-[2,6-di(methyl)-4-oxidanylidene-7,8-dihydro-5H-pyrido[4,3-d]pyrimidin-3-yl]ethoxy]phenyl]-2-methyl-N-methylsulfonyl-pyrrolo[1,2-b]pyridazine-7-carboxamide] | < 0.4 | < 10
Cc1cc(-c2cc(Cl)ccc2OCCn2c(C)nc3c(c2=O)CN(C)CC3)c2scc(C(=O)NS(C)(=O)=O)c2n1 [Compound 28, 7-[5-chloranyl-2-[2-[2,6-di(methyl)-4-oxidanylidene-7,8-dihydro-5H-pyrido[4,3-d]pyrimidin-3-yl]ethoxy]phenyl]-5-methyl-N-methylsulfonyl-thieno[3,2-b]pyridine-3-carboxamide; 2,2,2-tris(fluoranyl)acetic acid] | < 0.4 | < 10
Cc1cc(-c2cc(Cl)ccc2OCCn2c(C)nc3c(c2=O)CN(C)CCO3)c2scc(C(=O)O)c2n1 [Compound 30, 7-[5-chloranyl-2-[2-[2,6-di(methyl)-4-oxidanylidene-7,8-dihydro-5H-pyrimido[5,4-f][1,4]oxazepin-3-yl]ethoxy]phenyl]-5-methyl-thieno[3,2-b]pyridine-3-carboxylic acid; 2,2,2-tris(fluorenyl) acetic acid] | < 0.4 | < 10

Further lines, with some results ahead:

IC50 (human eIF4E protein) [µM] | Compound | IC50 [1] [µM]
10 to 100 | Cc1nc2c(c(=O)n1CCOc1ccc(Cl)cc1-c1ccc(C(=O)O)cc1)CN(C)CC2 [Compound 2] | –
10 to 100 | CN1CCc2ncn(CCOc3ccc(Cl)cc3-c3cccc(C(=O)O)c3)c(=O)c2C1 [Compound 3] | –
0.4 to 10 | COCCN1CCc2nc(C)n(CCOc3ccc(Cl)cc3-c3cccc(C(=O)O)c3)c(=O)c2C1 [Compound 6] | –
0.4 to 10 | CC(=O)N1CCc2nc(C)n(CCOc3ccc(Cl)cc3-c3cccc(C(=O)O)c3)c(=O)c2C1 [Compound 7] | –
< 0.4 | Cc1nc2c(c(=O)n1CCOc1ccc(Cl)cc1-c1ccnc3c(C(=O)O)csc13)CN(C)CC2 [Compound 8] | < 10
10 to 100 | Cc1nc2c(c(=O)n1CCOc1ccc(Cl)cc1-c1cccc(C(=O)O)c1)CN(C1COC1)CC2 [Compound 11] | > 20
< 0.4 | Cc1nc2c(c(=O)n1CCOc1ccc(Cl)cc1-c1cccc(C(=O)O)c1F)CN(C)CC2 [Compound 12] | > 20
< 0.4 | Cc1nc2c(c(=O)n1CCOc1ccc(Cl)cc1-c1ccnc(C(=O)NS(C)(=O)=O)c1)CN(C)CC2 [Compound 13] | > 20
< 0.4 | Cc1nc2c(c(=O)n1CCOc1ccc(Cl)cc1-c1ccnn3c(C(=O)O)ccc13)CN(C)CC2 [Compound 14] | < 10
0.4 to 10 | Cc1nc2c(c(=O)n1CCOc1ccc(Cl)cc1-c1ccnc(-c3n[nH]c(=O)o3)c1)CN(C)CC2 [Compound 15] | > 20
< 0.4 | Cc1cc(-c2cc(Cl)ccc2OCCn2c(C)nc3c(c2=O)CN(c2cc(F)ccc2F)CC3)c2scc(C(=O)O)c2n1 [Compound 19] | < 10
< 0.4 | Cc1cc(-c2cc(Cl)ccc2OCCn2c(C)nc3c(c2=O)CN(c2ccn4ncnc4c2)CC3)c2scc(C(=O)O)c2n1 [Compound 22] | 10 to 20
< 0.4 | Cc1cc(-c2cc(Cl)ccc2OCCn2c(C)nc3c(c2=O)CN(CC(F)(F)F)CC3)c2scc(C(=O)NS(C)(=O)=O)c2n1 [Compound 25, 7-[5-chloranyl-2-[2-[2-methyl-4-oxidanylidene-6-[2,2,2-tris(fluoranyl)ethyl]-7,8-dihydro-5H-pyrdo[4,3-d]pyrimidin-3-yl]ethoxy]phenyl]-5-methyl-N-methylsulfonyl-thieno[3,2-b]pyridine-3-carboxamide; 2,2,2-tris(fluoranyl) acetic acid] | < 10
< 0.4 | Cc1cc(-c2cc(Cl)ccc2OCCn2c(C)nc3c(c2=O)CN(C)CC3)c2scc(C(=O)O)c2n1 [Compound 29, 7-[5-chloranyl-2-[2-[2,6-di(methyl)-4-oxidanylidene-7,8-dihydro-5H-pyrido[4,3-d]pyrimidin-3-yl]ethoxy]phenyl]-5-methyl-thieno[3,2-b]pyridine-3-carboxylic acid] | < 10
10 to 100 | Cc1nc2c(c(=O)n1CC#Cc1ccc(Cl)cc1-c1ccnc3c(C(=O)O)csc13)CN(C)CC2 [Compound 31] | > 20
